{"source": "patent EP1839675A1", "about": "“NOVEL METHOD OF PROTECTING ISCHEMIC CARDIOPATHY” (Japan Science and Technology Agency, priority 2004, dated 2006)", "key": {"[1]": {"system": "neonatal rat ventricular myocytes", "experiment": "Cell viability (MTT) after ischemic treatment and post-ischemic reperfusion in primary cultures", "assay_type": "cell-based", "details": "for effect of dbcAMP + PMA on cell viability under co-application of CFTR channel blocker: DP plus NPPB 50 µM, glibenclamide 500 µM, gemfibrozil 2 mM or 9AC 2 mM during ischemic treatment, MTT after 96 hours reperfusion", "protocol": "Primary cultures of ventricular myocytes were prepared from the hearts of neonatal rats by enzyme treatment. M199+10% FBS was used as culture medium. To reduce the number of contaminating non-myocardial cells, the medium was supplemented with 100 µM BrdU during incubation. The primary cell cultures of rat myocardial cells were subjected to ischemic treatment (removal of glucose and oxygen) and post-ischemic reperfusion according to the following procedures. The medium was replaced with a glucose-free solution, which contained 108 mM NaCl, 0.5 mM MgCl2, 5.4 mM KCl, 1mM CaCl2, and 5 mM HEPES (pH adjusted to 7.4 with NaHCO3), and were incubated at 37°C for 8 hours under anaerobic conditions, which were created by replacing air with a gas mixture of 95% Ar and 5% CO2. Immediately after incubation, the solution was replaced with a glucose-containing normal medium (M199+10% FBS), and then left in a CO2 incubator (95% air (20% O2), 5% CO2, 37°C) for 96 hours (reperfusion: re-supply of glucose/reoxygenation). Cl^- channel blocker (NPPB) was administered to the primary cell cultures of rat ventricular myocytes 1 hour prior to ischemic treatment, or at the start of ischemic treatment that lasted 8 hours. Cl- channel blocker (NPPB) was also administered over a time period of 18 hours after the start of post-ischemic reperfusion. Cell viability was assayed using MTT. To ensure accuracy in viable cell count, the assay was performed using cells obtained 96 hours after the start of post-ischemic reperfusion (Figure 1).\nPrimary cultures of rat ventricular myocytes were prepared and cultured in the manner described in Example 1. The procedures of Example 1 were also used to expose the primary cultures of rat ventricular myocytes to ischemic treatment (removal of glucose and oxygen) and post-ischemic reperfusion.\n(§1) During ischemic treatment, the primary cultures of rat ventricular myocytes were administered with CFTR channel activator (PKA activator dbcAMP (1mM) or PKC activator PMA (100 nM), or both (DP)), or CFTR channel activator + CFTR channel blocker (NPPB (50 µM), glibenclamide (500 µM), gemfibrozil (2 mM), or 9AC (2 mM)). Following administration, ischemia was induced for 8 hours, and, after 96 hours of subsequent reperfusion, cell viability was assayed using MTT (Figure 2).\nas §1, with “(milrinone (0.73 µg, 1 ml), isoproterenol (10 nM), and” for “(PKA activator dbcAMP (1mM) or PKC activator”, “nM) used together (MIP)),” for “nM), or both (DP)),”, “3).” for “2).”"}, "[2]": {"system": "rat ventricular myocytes", "experiment": "Necrotic cell death by Hoechst 33342 / propidium iodide double staining immediately after ischemia", "assay_type": "cell-based", "details": "Ventricular myocyte, NPPB 50 µM at start of ischemic treatment, after 8 hours of ischemia, group without reagent 44.4%, read-out: cells stained by PI", "protocol": "Primary cultures of rat ventricular myocytes were prepared and cultured in the manner described in Example 1. The procedures of Example 1 were also used to expose the primary cultures of rat ventricular myocytes to ischemic treatment (removal of glucose and oxygen). […] Immediately after ischemia, cells were double stained to examine a rate of necrotic cell death, using Hoechst 33342 and propidium iodide (PI) according to a method known in the art. Hoechst 33342 stains the nucleus of all cells, and propidium iodide (PI) stains only dead cells with necrosis-induced membrane injury."}, "[3]": {"system": "rat ventricular myocytes", "experiment": "Nuclear DNA fragmentation (apoptosis) by Cell Death Detection ELISA, enrichment factor", "assay_type": "cell-based", "details": "NPPB 50 µM or dbcAMP 1mM + PMA 100 nM", "protocol": "Primary cultures of rat ventricular myocytes were prepared and cultured in the manner described in Example 1. The procedures of Example 1 were also used to expose the primary cultures of rat ventricular myocytes to ischemic treatment (removal of glucose and oxygen) and post-ischemic reperfusion. The primary cultures of rat ventricular myocytes were administered with CFTR channel activator (PKA activator dbcAMP (1mM) + PKC activator PMA (100 nM)), or CFTR channel blocker (NPPB (50 µM)). Administration was made at the start of ischemic treatment, which lasted 8 hours. Fragmentation of nuclear DNA in the cells was assayed immediately after ischemia or 96 hours after post-ischemic reperfusion (Figure 5). Specifically, DNA fragmentation was assayed using a method (DNA fragmentation detecting method (Cell Death Detection ELIZA kit^PLUS (Roche Diagnostics), which specifically detects […] that are characteristics of apoptotic cells. The result of measurement was obtained as enrichment factor, which was calculated according to the following formula. Enrichment factor (rate of nuclear DNA fragmentation) = absorbance of sample (dead cells)/absorbance of control (untreated cells) [formula]"}, "[4]": {"system": "ischemic cardiac muscle", "details": "cited from earlier work; for effect on ischemic cardiac muscle: administered after a period of ischemia; for size of infarct in ischemic cardiac muscle: pre-ischemic administration"}, "[5]": {"details": "extended period (45 minutes); cited from earlier work"}, "[6]": {"details": "cited from earlier work"}, "[7]": {"details": "dbcAMP 1mM and/or PMA 100 nM during ischemic treatment, 8 hours ischemia, 96 hours reperfusion, MTT (Figure 2)"}}, "data": [{"compound": "O=C(O)c1cc([N+](=O)[O-])ccc1NCCCc1ccccc1", "note": "[NPPB, 5-nitro-2-2(3-phenylpropylamino)-benzoate]", "values": [{"measurement": "cell viability", "setting": "[1]; 50 µM NPPB administered during ischemic treatment (8 hours), MTT 96 hours after start of reperfusion", "value": "significant reduction"}, {"measurement": "effect of dbcAMP + PMA on cell viability under co-application of CFTR channel blocker", "setting": "[1]", "value": "completely abolished"}, {"measurement": "cytotoxicity at 50 µM", "setting": "[2]", "value": 90.3, "unit": "%"}, {"measurement": "level of DNA fragmentation", "setting": "[3]; 96 hours after reperfusion, compared with non-administered group", "value": "no significant difference"}, {"measurement": "level of DNA fragmentation", "setting": "[3]; immediately after 8 hours ischemia, compared with non-ischemic cells (score of 1)", "value": "the same"}]}, {"compound": "CCCCCCCCCCCCCC(=O)O[C@@H]1[C@@H](C)[C@@]2(O)[C@@H](C=C(CO)C[C@]3(O)C(=O)C(C)=C[C@@H]23)[C@@H]2C(C)(C)[C@]12OC(C)=O", "note": "[PMA, phorbol 12-myristate 13-acetate]", "values": [{"measurement": "cell viability", "setting": "[1]; [7]", "value": "could not produce the effect"}]}, {"compound": "Nc1cc(-c2ccncc2)c[nH]c1=O", "note": "[amrinone]", "values": [{"measurement": "effect on ischemic cardiac muscle", "setting": "[4]", "value": "do not exhibit any effect"}, {"measurement": "size of infarct in ischemic cardiac muscle", "setting": "[4]", "value": "effective in reducing the size of infarct"}]}, {"compound": "CC(C)c1ccc(C(=O)NC(=N)N)cc1S(C)(=O)=O", "note": "[cariporide]", "values": [{"measurement": "effect on injury caused by post-ischemic reperfusion", "setting": "[5]", "value": "ineffective"}]}, {"compound": "CCCC(=O)Nc1ncnc2c1ncn2[C@@H]1O[C@@H]2COP(=O)(O)O[C@H]2[C@H]1OC(=O)CCC", "note": "[dbcAMP, N6,2'-O-dibutyriladenosine-3':5'-cyclic monophosphate]", "values": [{"measurement": "cell viability", "setting": "[1]; [7]", "value": "could not produce the effect"}]}, {"compound": "Cc1ccc(C)c(OCCCC(C)(C)C(=O)O)c1", "note": "[gemfibrozil]", "values": [{"measurement": "effect of dbcAMP + PMA on cell viability under co-application of CFTR channel blocker", "setting": "[1]", "value": "completely abolished"}]}, {"compound": "COc1ccc(Cl)cc1C(=O)NCCc1ccc(S(=O)(=O)NC(=O)NC2CCCCC2)cc1", "note": "[glibenclamide]", "values": [{"measurement": "effect of dbcAMP + PMA on cell viability under co-application of CFTR channel blocker", "setting": "[1]", "value": "completely abolished"}]}, {"compound": "Cc1[nH]c(=O)c(C#N)cc1-c1ccncc1", "note": "[milrinone, 1,6-dihydro-2-methyl-6-oxo[3,4'-bipyridine]-5-carbonitrile]", "values": [{"measurement": "effect on ischemic cardiac muscle", "setting": "[4]", "value": "do not exhibit any effect"}, {"measurement": "size of infarct in ischemic cardiac muscle", "setting": "[4]", "value": "effective in reducing the size of infarct"}, {"measurement": "milrinone in the blood circulating bound to protein", "setting": "[6]; blood", "value": "about 70%"}, {"measurement": "excretion / metabolism", "setting": "[6]; in vivo", "value": "released into urine without being metabolized"}, {"measurement": "half-life", "setting": "[6]; in vivo", "value": 2, "unit": "h"}]}]}
